Values quoted from earlier work, collected in PMC6155437 (Molecules : A Journal of Synthetic Chemistry and Natural …, 2017).

Key:
[1] = molecular target: CYP3A4 (Homo sapiens, UniProt P08684); conditions: CYP3A4 activity; cited from earlier work
[2] = molecular target: T1, CYP2B6 (Homo sapiens, UniProt P20813); parameters: method as in doi:10.1007/s11419-011-0112-7; conditions: CYP2B6 activity; cited from earlier work
T1 construct: pooled human liver microsomes (0.2 mg/mL); tissue Corning Life Sciences; host or cells: pooled human liver microsomes (150 donors)
T1 sequence (P20813 1-491): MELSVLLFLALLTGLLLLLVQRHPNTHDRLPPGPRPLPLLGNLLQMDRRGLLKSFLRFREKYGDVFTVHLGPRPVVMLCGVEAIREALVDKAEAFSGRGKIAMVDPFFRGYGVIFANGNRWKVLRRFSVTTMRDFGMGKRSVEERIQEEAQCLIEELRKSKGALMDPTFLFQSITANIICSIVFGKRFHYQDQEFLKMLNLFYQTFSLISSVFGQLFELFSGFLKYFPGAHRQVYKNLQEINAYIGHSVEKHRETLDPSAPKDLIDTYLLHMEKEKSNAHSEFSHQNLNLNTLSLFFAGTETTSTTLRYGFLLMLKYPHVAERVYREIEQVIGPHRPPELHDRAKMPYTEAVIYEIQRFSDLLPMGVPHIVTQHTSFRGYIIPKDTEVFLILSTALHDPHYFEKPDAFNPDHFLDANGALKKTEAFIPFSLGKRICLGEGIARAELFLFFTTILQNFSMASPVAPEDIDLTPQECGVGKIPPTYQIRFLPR

[3] = molecular target: T2, CYP2C9 (Homo sapiens, UniProt P11712); parameters: method as in PMID 22166891; conditions: CYP2C9-catalyzed diclofenac hydroxylation in human liver microsomes; cited from earlier work
T2 construct: tissue Corning Life Sciences; host or cells: pooled human liver microsomes (150 donors)
T2 sequence (P11712 whole entry): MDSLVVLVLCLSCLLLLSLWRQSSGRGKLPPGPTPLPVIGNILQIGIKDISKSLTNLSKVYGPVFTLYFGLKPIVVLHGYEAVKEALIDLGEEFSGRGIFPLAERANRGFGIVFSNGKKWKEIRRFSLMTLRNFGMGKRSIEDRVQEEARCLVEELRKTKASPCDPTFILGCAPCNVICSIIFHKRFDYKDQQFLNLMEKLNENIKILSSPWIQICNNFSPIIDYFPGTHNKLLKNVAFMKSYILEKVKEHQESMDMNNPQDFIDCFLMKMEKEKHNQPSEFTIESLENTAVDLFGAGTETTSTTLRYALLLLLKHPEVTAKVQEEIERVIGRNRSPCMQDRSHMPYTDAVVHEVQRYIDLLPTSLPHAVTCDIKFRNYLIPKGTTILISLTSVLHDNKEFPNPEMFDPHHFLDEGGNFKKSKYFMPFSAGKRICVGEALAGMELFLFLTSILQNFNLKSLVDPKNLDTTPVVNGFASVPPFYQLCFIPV

Chain of CYP3A4 (P08684 whole entry): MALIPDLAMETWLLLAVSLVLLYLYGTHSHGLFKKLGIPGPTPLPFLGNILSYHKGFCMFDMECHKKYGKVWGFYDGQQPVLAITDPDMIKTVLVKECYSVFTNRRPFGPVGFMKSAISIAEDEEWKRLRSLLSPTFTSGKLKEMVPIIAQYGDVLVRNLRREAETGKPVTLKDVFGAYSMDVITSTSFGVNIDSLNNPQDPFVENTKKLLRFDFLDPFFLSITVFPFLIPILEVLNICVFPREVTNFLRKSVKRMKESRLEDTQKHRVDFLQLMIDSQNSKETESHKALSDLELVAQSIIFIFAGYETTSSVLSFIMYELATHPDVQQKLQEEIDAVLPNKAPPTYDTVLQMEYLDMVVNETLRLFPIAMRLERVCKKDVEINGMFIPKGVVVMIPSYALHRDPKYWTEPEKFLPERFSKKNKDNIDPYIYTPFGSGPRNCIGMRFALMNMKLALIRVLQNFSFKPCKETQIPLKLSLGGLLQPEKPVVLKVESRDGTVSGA

Row | Structure (SMILES) | IC50 [1] | Ki [2] | Ki [3]
1 | CCCCCc1cc(O)c2c(c1)OC(C)(C)c1ccc(C)cc1-2 [cannabinol] | > 50 µM | – | –
2 | CCCCCc1cc(O)c2c(c1)OC(C)(C)[C@@H]1CCC(C)=C[C@@H]21 [THC, Δ9-tetrahydrocannabinol] | > 50 µM | 2.81 µM | 1.31 µM
